Patent publication US11160277B2, “Use of cholinium lysinate as an herbicide” (priority 2019, dated 2021)
“Also recorded” adds a separate entry of the source.

Key:
[1] = test system: Arabidopsis thaliana; assay: Arabidopsis seedling root architecture screen on vertical agar plates; assay type: in vivo; conditions: for lateral root initiation (effect of treatment) / primary root growth (effect of treatment): 6 days of treatment, concentrations tested
Source text: An initial dose-responded for Arabidopsis seeding growth across multiple orders of magnitude in concentration is developed, and then examined sub-lethal concentrations in greater detail. Plants are germinated and grown vertically on transparent agar plates until the emergence of the first set of true leaves (6-8 days), transferred to fresh plates with or without the compound of interest, and imaged at 0 and 6 days after transfer. Finally, a semi-automated image analysis method is used to score primary root growth and total lateral root number, common phenotypes in plant developmental biology (Lobet, Pagès, and Draye 2011).
Arabidopsis ecotype Col-0 seeds are obtained from the Arabidopsis Biological Resource Center (ABRC). Seeds are surface sterilized by a brief wash in 70% (v/v) ethanol followed by incubation in 30% (v/v) sodium hypochlorite (commercial bleach) for 15 minutes. Seeds are subsequently rinsed 5 times in sterile water, and sown on ½ Murashige and Skoog (MS) agar. Seeds are stratified (2 days, 4° C. in the dark) before transfer to a growth chamber under a 10 h light:14 h dark (22° C.). Following germination, plants are grown until the appearance of the first set of true leaves (˜6 days) prior to transfer to fresh test or control agar. […] The change in root length is determined from the primary root length at transfer subtracted from the primary root length after 6 days of treatment.
(§1) Rhizobacterial biomass for root inoculation experiments is generated by cultivating individual isolates at 30° C. in LB supplemented with 1% (w/v) dextrose, shaking at 200 RPM. Overnight cultures are diluted to an OD600 of 0.1 in fresh media then grown under the same conditions to an OD600 of 0.7. Pellets are centrifuged (2000 r.c.f.) for 10 min at room temperature, then resuspended in 1/10 volume sterile water. Plants are inoculated by momentarily submerging their roots into cell resuspensions, or in sterile water for mock-inoculated controls. Plants are transferred to fresh ½ MS agar plates immediately post-inoculation and grown as before.
(§2) D-limonene, α-pinene, protocatechuate, p-coumarate, [C2C1im][OAc], or [Ch][Lys] are dissolved in molten ½ MS media where indicated. 1.2 M stock solutions of p-coumarate and 1.5 M stock solutions of protocatechuate are prepared in dimethylsulfoxide (DMSO) and ethanol, respectively, before their addition to growth media.
(§3) Plants are lit from the sides and photographed using a Canon 550D camera; images are saved as JPEG files for further analysis. The contrast is adjusted to maximize root visibility, but any adjustments are applied uniformly. Root growth is quantified using ImageJ (Schneider, Rasband, and Eliceiri 2012) with the SmartRoot plugin using default parameters (Lobet, Pages, and Draye 2011).

[2] = test system: A. rhizogenes; assay: Microbial growth in liquid culture (A. rhizogenes); assay type: cell-based; conditions: for microbial growth with the compound as sole carbon source: M9 minimal media
Protocol: (§4) Whether inoculation with rhizobacteria alters the effect of the test compounds on plant growth is next tested. Two microbes, A. rhizogenes and Acinetobacter sp.
Whether either [Ch][Lys] or [C2C1im][OAc] has an effect on A. rhizogenes is tested by growing a liquid culture in minimal media (M9, which contains only salts and nitrogen) supplemented with either 0.1 mM [Ch][Lys], 1 mM [C2C1im][OAc], or 1% w/v dextrose as the sole carbon source is tested.
Choline, for instance, can be used as a precursor to the compatible solute glycine betaine in a process dependent on two genes, betA and betB, both of which are present in the A. rhizogenes genome (Levy et al. 2018). Glycine betaine is additionally known to improve the salt tolerance of both plants and microbes (Riou and Le Rudulier 1990; Hayashi et al. 1997). Therefore, whether [Ch][Lys] improves the salt tolerance of A. rhizogenes by growing the microbe in M9 supplemented with 1% w/v dextrose and either 0.1 mM [Ch][Lys], 400 mM NaCl, or both, is tested.
(§5) Microbial strains are maintained in glycerol stocks stored at −80° C. Media used are Lysogeny broth (LB: 10 g/L tryptone, 5 g/L yeast extract, and 5 g/L NaCl) or M9 minimal media (M9: 6.8 g/L Na2HPO4, 3 g/L KH2PO4, 1 g/L NH4Cl, 0.5 g/L NaCl, 0.12 g/L MgSO4) as indicated. Liquid pre-cultures are inoculated with colonies from LB agar plates and grown overnight at 30° C., shaking at 200 RPM. Precultures are back-diluted to an OD600 0.1 into fresh media and grown until OD600 0.6, and then 2 μL per well is used to inoculate 96 well microtiter plates in a total volume of 100 μL of the media and treatment conditions indicated. Optical density is tracked at a wavelength of 600 nm using a Synergy 4 plate reader (BioTek Instruments) kept at 30° C. and shaking on “high” setting.

[3] = test system: Acinetobacter sp. 01; assay: Microbial growth in liquid culture (Acinetobacter sp. 01); assay type: cell-based
Protocol: as §4, §5

[4] = test system: Sorghum bicolor; assay: Sorghum seedling root growth on vertical agar plates; assay type: in vivo; conditions: for effect on seedlings transferred to solid media: similar results as Arabidopsis; for mean crown root growth / mean lateral root growth: 5 mM [Ch][Lys], 8 days
Source text: Arabidopsis is useful as a model system because of its fast generation time, ease of handling, and the availability of relevant genetic tools. The effects of these treatments on a second plant species of economic relevance are compared. Sorghum is selected, since it is both evolutionarily distant from Arabidopsis, but also an agronomically important plant for food, forage, and biomass, and is cultivated over 3,300,000 ha in the United States and 40,000,000 ha globally (Langholtz, Stokes B. J., and Eaton 2016).
Sorghum cultivar BTx623 seeds are a kind gift from Dr. Jeff Dahlberg, UCANR. Seeds are surface sterilized by rinsing 5 times in sterile water, briefly washing in 70% (v/v) ethanol+0.01% (v/v) Triton-X 100 and incubating in bleach+0.01% (v/v) Triton-X 100 on a shaker for 20 minutes. They are then rinsed in sterile water a further 3 times, sown on plates, and grown as above (although without stratification).
as §1, §2, §3

[5] = test system: Arabidopsis roots; conditions: 0.1 mM
Protocol: FIG. 4G. […] Representative fluorescent microscopy images of Arabidopsis roots following propidium iodide staining. I: Control; II: 0.1 mM [Ch][Lys]; III: inoculation with A. rhizogenes; IV: 0.1 mM [Ch][Lys] and A. rhizogenes. The scale bar=200 μm.
Seedlings are inoculated or chemically treated as previously described. After the treatment period roots are gently washed in sterile water and the cell walls are stained for 1 min in […] propidium iodide (PI, Sigma), then briefly rinsed in sterile water. Cellular morphology is determined using a Zeiss LSM 710 confocal microscope with PI fluorescence emission at 550-680 nm and 488 nm excitation.

[6] = test system: mammals, fish, and microbes; conditions: reported (Sun et al. 2014); cited from earlier work
[7] = 1 mM protocatechuate, inoculated with A. rhizogenes
[8] = 1 mM protocatechuate, uninoculated
[9] = 0.1 mM [Ch][Lys], inoculated with A. rhizogenes, 6 days
[10] = 0.1 mM [Ch][Lys], uninoculated, 6 days

Compound: CCn1cc[n+](C)c1 [[C2C1im][OAc], 1-ethyl-3-methylimidazolium acetate]
- lateral root initiation, effect of inoculation ([1]; 1 mM [C2C1im][OAc], inoculated with A. rhizogenes): no effect
- mean primary root growth ([1]; 1 mM [C2C1im][OAc], inoculated with A. rhizogenes, 6 days): 2.912 cm
- mean primary root growth ([1]; 1 mM [C2C1im][OAc], inoculated with Acinetobacter sp. 01, 6 days): 4.011 cm
- mean primary root growth ([1]; 1 mM [C2C1im][OAc], uninoculated, 6 days): 1.904 cm
- root growth ([1]; 1 mM, uninoculated): overall reduction in root growth
- lateral root initiation (effect of treatment) ([1]; uninoculated): dose dependent reduction
- primary root growth (effect of treatment) ([1]; uninoculated): dose dependent reduction
- effect on growth of the microbe ([2]; 1 mM): does not alter the growth
- microbial growth with the compound as sole carbon source ([2]; 1 mM [C2C1im][OAc]): Neither IL allows microbial growth
- effect on growth of the microbe ([3]; 1 mM): does not alter the growth

Compound: O=C(O)c1ccc(O)c(O)c1 [protocatechuate]
- primary root curvature, median skew to the right from that of untreated plants ([1]; 1 mM): 200
- mean lateral root number (lateral root initiation) [1, 7]: 2.214
- mean primary root growth [1, 7]: 0.631 cm
- mean lateral root number (lateral root initiation) [1, 8]: 7.989
- mean primary root growth [1, 8]: 2.293 cm
- lateral root initiation ([1]; 1 mM, uninoculated, 6 days): increase lateral root initiation
- lateral root growth ([1]; uninoculated, 6 days): enhanced
- primary root growth (effect of treatment) ([1]; uninoculated): reduce primary root growth at all concentrations tested

Compound: O=C(O)/C=C/c1ccc(O)cc1 [p-coumarate]
- lateral root initiation (effect of treatment) ([1]; uninoculated): dose dependent reduction
- primary root growth (effect of treatment) ([1]; uninoculated): dose dependent reduction

Compound: C=C(C)C1CC=C(C)CC1 [D-limonene]
- plants showing complete inhibition of primary root growth ([1]; regardless of the concentration tested): at least 20%
- lateral root growth ([1]; uninoculated, 6 days): unaffected
- changes in root architecture / dose-response ([1]; uninoculated, between and within plates): inconsistent changes in root architecture; also recorded: no dose-response relationship was obvious

Compound: cholinium lysinate [[Ch][Lys]]
- effect on seedlings transferred to solid media ([1]; 0.1 mM): reduced root growth
- mean lateral root number (lateral root initiation) [1, 9]: 4.889
- mean primary root growth [1, 9]: 2.241 cm
- root growth versus uninoculated, [Ch][Lys]-treated controls ([1]; 0.1 mM [Ch][Lys], inoculated with Pool A): do not differ significantly
- mean primary root growth ([1]; 0.1 mM [Ch][Lys], inoculated with Pool B): 2.072 cm
- mean lateral root number (lateral root initiation) [1, 10]: 7.069
- mean primary root growth [1, 10]: 0.858 cm
- primary root growth ([1]; 0.1 mM, uninoculated): significantly inhibit
- lateral root initiation ([1]; 0.1 mM, uninoculated, 6 days): increase lateral root initiation
- effect on seedlings transferred to solid media ([1]; 5 mM): complete chlorosis and plant death
- concentration that reduces the root growth ([1]; A. thaliana): At least 0.1 mM
- concentration sufficient to completely inhibit primary root growth ([1]; Arabidopsis): 0.1 mM
- root growth, effect of inoculation ([1]; [Ch][Lys] treatment, inoculated with Acinetobacter sp. 01): no significant effect
- application rate equivalent to the concentration that inhibits primary root growth ([1]; equates to 0.1 mM): 104 g/ha2
- estimated appropriate application rate as herbicide ([1]; estimate): 100-500 g/ha
- primary root growth (effect of treatment) ([1]; uninoculated): reduce primary root growth at all concentrations tested
- effect on seedlings transferred to solid media ([4]; 0.1 mM): reduced root growth
- mean crown root growth ([4]; inoculated with A. rhizogenes): 5.028 cm
- mean lateral root growth ([4]; inoculated with A. rhizogenes): 1.051 cm
- mean crown root growth ([4]; uninoculated): 3.267 cm
- mean lateral root growth ([4]; uninoculated): 0.464 cm
- branching lateral roots and crown root growth ([4]; 5 mM, over 8 days): almost completely inhibit
- effect on seedlings transferred to solid media ([4]; 5 mM): complete chlorosis and plant death
- concentration that reduces the root growth ([4]; S. bicolor): At least 5 mM
- concentration tolerated by the microbe ([2]; A. rhizogenes): 10 mM
- A. rhizogenes growth rate under NaCl ([2]; M9 + 1% w/v dextrose, 400 mM NaCl plus 0.1 mM [Ch][Lys]): partially rescued
- microbial growth with the compound as sole carbon source ([2]; 0.1 mM [Ch][Lys]): Neither IL allows microbial growth
- concentration tolerated by the microbe ([3]; Acinetobacter sp. 01): 10 mM
- root cell morphology phenotype caused by [Ch][Lys] ([5]; A. rhizogenes treated roots): abolished
- root cell morphology ([5]; uninoculated): irregular expansion of epidermal cells of the root apical meristem (RAM) and stimulates formation of ectopic root hairs
- toxicity to mammals, fish, and microbes [6]: low toxicity

Compound: [Cl-].[Na+] [NaCl, reference compound]
- A. rhizogenes growth rate ([2]; M9 + 1% w/v dextrose, 400 mM NaCl): reduces the A. rhizogenes growth rate

Compound: CC1=CCC2CC1C2(C)C (stereo not drawn) [α-pinene]
- lateral root initiation (effect of treatment) ([1]; uninoculated): dose dependent reduction
- primary root growth (effect of treatment) ([1]; uninoculated): dose dependent reduction
